Assay results from patent US11925669B2, “Chinese herbal medicine composition having a function of reducing uric acid” (Infinitus (China) Company Ltd., priority 2013, dated 2024).
Marks after values point to notes of the source that are not given here.

Tests used:
[1] = system: rat model of hyperuricemia; test: Reducing uric acid in the rat model of hyperuricemia (Oteracil potassium), 30 d intragastric administration; type: in vivo, SD Rat; conditions: for UA Reduction: day 30, calculated in comparison with Model control group
Source text: Examine the effect of the Chinese herbal composition of the present invention for reducing uric acid in the rat model of hyperuricemia. Animals were assigned randomly into: Blank control group, Sample control group, Model control group, Test group, and Positive control group. Each group consisted of 10 animals. […] They were randomly assigned into 5 groups, each group consisting of 10 animals, the body weight distribution of each group of rats is similar. […] Blank control group was administrated with 17 ml/kg of distilled water intragastrically every afternoon, Sample control group was administrated with 17 ml/kg of test sample intragastrically every afternoon, Model control group was administrated with distilled water intragastrically in the afternoon, Positive control group was administrated with allopurinol intragastrically in the afternoon, and Test group was administrated with 17 ml/kg of test sample intragastrically in the afternoon. Additionally, for Model control group, Positive control group and Test group, each group was administrated with Oteracil potassium intragastrically every morning. The administration was conducted daily for 30 days. Prior to experiments, the rats were fastened for 12 h (but water was provided) and then about 1 ml of blood were taken from orbital veniplex with glass capillary tube. Sera were separated for measuring the pre-testing level of uric acid. On day 30, blood were taken in the same manner and sera were separated for measuring the serum levels of uric acid, creatinine, and urea nitrogen. Modeling principle: Rats were intragastrically administrated with Oteracil potassium, a chemical inhibitor of uricase, to inhibit the activity of uricase in the body of rats, rendering uric acid in the body of rats unable to breakdown, causing the accumulation of uric acid produced in the serum, so as to produce a rat model of hyperuricemia. Model control group: 17 ml/kg*d of distilled water was administrated intragastrically, once daily for 30 days; Test sample prevention group: 17 ml/kg*d of test sample was administrated intragastrically, once daily for 30 days; Positive control group: 17 ml/kg*d of positive control allopurinolis administrated intragastrically, once daily for 30 days. Observation of Body weight: The growing condition of animals were observed by weighing prior to administration and on Day 30 of administration. Blood were taken prior to administration and on Day 30 of administration to measure uric acid, creatinine, urea nitrogen, to calculate the changing rate of uric acid level in serum. The changing rate of uric acid in serum=(uric acid value in serum after experiment-uric acid value in serum prior to experiment)/uric acid value in serum prior to […]100% ANOVA (analysis of variance) was used. Firstly, homogeneous variance test was carried out, and F values were calculated.

[2] = system: rat model of hyperuricemia; test: as above; type: in vivo, SD Rat; conditions: hyperuricemia model rats, X ± S
[3] = hyperuricemia model rats, intragastric once daily, day 30, X ± S

Oc1ncnc2[nH]ncc12 [allopurinol]
30 d weight ([1]; hyperuricemia model rats, body weight after 30 days, X ± S): 254.4 ± 23.1 g
UA Reduction ([1]; hyperuricemia model rats): 53.4%
UA Reduction ([1]; hyperuricemia model rats, listed as Positive control): ↓53.4%
BUN level in the sera of rats upon 30 d administration [1, 3]: 5.53 ± 0.79 mM
UA level in the sera of rats upon 30 d administration [1, 3]: 63.20 ± 17.19** μmol/L
Blood/serum UA level change in words ([1]; in comparison with Model control group, 30 d oral administration): significant reduction
General status observation (appearance, activities, excrement characters) ([1]; in comparison with Model control group, observed daily): no significant difference
10 d weight ([2]; body weight after 10 days): 185.7 ± 15.9 g
20 d weight ([2]; body weight after 20 days): 224.2 ± 21.8 g
